In patent publication US10179782B2, “Substituted sulfonamide compounds” (Genentech, Inc., priority 2016, dated 2019):
pIC50: −log10 of the molar value.

Molecular target: T1, human TRPA1 (Homo sapiens, UniProt O75762)
T1 construct: expressed in transfected cells; host or cells: CHO cells
Test: TRPA1 FLIPR Tetra calcium influx assay in CHO cells (block of cinnamaldehyde-induced calcium influx)
Type: cell-based
Conditions: Table 2; CHO cells expressing TRPA1; agonist cinnamaldehyde 75 uM; 20 min compound incubation; Hill coefficient fixed to 1.5; read-out: hTRPA1 CHO Ca2+ AUC EVO (IC50)
In short: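 IC50s were derived from a Hill fit with n fixed at 1.5, using inhibition of FLIPR Tetra calcium signals in dye-loaded TRPA1-CHO cells. Cells sat with compound 20 min at room temperature in HBSS with 20 mM HEPES (pH 7.4) and 0.02% BSA, then were challenged with cinnamaldehyde near EC80: 75 µM human, 45 µM rat.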

T1 sequence (O75762 whole entry): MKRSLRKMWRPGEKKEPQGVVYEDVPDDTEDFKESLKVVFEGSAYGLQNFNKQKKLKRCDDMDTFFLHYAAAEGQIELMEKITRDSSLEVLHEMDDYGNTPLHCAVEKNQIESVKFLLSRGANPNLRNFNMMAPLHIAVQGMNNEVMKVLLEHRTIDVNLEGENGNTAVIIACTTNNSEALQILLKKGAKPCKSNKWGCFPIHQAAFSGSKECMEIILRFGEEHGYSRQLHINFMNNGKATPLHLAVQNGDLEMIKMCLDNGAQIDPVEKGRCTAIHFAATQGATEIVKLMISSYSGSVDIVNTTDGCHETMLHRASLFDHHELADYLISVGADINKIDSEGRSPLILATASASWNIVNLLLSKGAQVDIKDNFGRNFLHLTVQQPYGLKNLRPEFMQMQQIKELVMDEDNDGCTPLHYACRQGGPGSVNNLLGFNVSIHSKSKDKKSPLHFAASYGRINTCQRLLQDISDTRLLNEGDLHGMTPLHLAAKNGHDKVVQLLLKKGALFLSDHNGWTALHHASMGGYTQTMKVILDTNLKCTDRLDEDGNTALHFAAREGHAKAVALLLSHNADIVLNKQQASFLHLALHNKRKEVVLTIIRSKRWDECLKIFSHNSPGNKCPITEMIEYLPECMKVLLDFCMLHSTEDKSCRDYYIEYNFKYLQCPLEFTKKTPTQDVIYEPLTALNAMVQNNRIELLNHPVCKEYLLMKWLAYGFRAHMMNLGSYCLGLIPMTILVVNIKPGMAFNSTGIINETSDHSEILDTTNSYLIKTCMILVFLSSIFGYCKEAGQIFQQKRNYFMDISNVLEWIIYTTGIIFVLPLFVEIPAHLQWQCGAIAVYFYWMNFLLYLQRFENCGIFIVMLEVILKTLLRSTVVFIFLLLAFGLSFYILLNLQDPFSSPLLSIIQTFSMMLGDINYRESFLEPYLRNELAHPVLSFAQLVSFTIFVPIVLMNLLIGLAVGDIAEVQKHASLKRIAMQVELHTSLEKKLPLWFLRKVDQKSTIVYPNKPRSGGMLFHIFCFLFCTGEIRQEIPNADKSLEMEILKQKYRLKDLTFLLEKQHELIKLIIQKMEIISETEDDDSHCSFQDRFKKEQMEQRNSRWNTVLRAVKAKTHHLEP

Compound | pIC50
C[C@H]1[C@H](F)C[C@@H](C(=O)NCc2cc(-c3cnc(C(F)(F)F)nc3)ncc2C(F)(F)F)N1S(=O)(=O)c1ccc(C#N)cc1 [Example 116, (2S,4R,5S)-1-(4-cyanophenyl)sulfonyl-4-fluoro-5-methyl-N-[[5-(trifluoromethyl)-2-[2-(trifluoromethyl)pyrimidin-5-yl]-4-pyridyl]methyl]pyrrolidine-2-carboxamide] | 8.24
C[C@H]1[C@H](F)C[C@@H](C(=O)NCc2cc(-c3cnc(C(F)(F)F)nc3)c(F)cn2)N1S(=O)(=O)c1ccc(F)c(F)c1 [Example 118, (2S,4R,5S)-1-(3,4-difluorophenyl)sulfonyl-4-fluoro-N-[[5-fluoro-4-[2-(trifluoromethyl)pyrimidin-5-yl]-2-pyridyl]methyl]-5-methyl-pyrrolidine-2-carboxamide] | 8.64
C[C@H]1[C@H](F)C[C@@H](C(=O)NCc2cc(-c3cnc(C(F)(F)F)nc3)nc(C3CC3)c2)N1S(=O)(=O)c1ccc(F)cc1 [Example 121, (2S,4R,5S) N-[[2-cyclopropyl-6-[2-(trifluoromethyl)pyrimidin-5-yl]-4-pyridyl]methyl]-4-fluoro-1-(4-fluorophenyl)sulfonyl-5-methyl-pyrrolidine-2-carboxamide] | 8.84
C[C@H]1[C@H](F)C[C@@H](C(=O)NCc2cc(-c3cnc(C(F)(F)F)nc3)ncc2OCC(F)(F)F)N1S(=O)(=O)c1ccc(F)cc1 [Example 122, (2S,4R,5S)-4-fluoro-1-(4-fluorophenylsulfonyl)-5-methyl-N-((5-(2,2,2-trifluoroethoxy)-2-(2-(trifluoromethyl)pyrimidin-5-yl)pyridin-4-yl)methyl)pyrrolidine-2-carboxamide] | 8.26
C[C@H]1[C@H](F)C[C@@H](C(=O)NCc2cc(-c3cnc(C(F)(F)F)nc3)nc(OCC(F)(F)F)n2)N1S(=O)(=O)c1ccc(F)cc1 [Example 124, (2S,4R,5S)-4-fluoro-1-(4-fluorophenyl)sulfonyl-5-methyl-N-[[2-(2,2,2-trifluoroethoxy)-6-[2-(trifluoromethyl)pyrimidin-5-yl]pyrimidin-4-yl]methyl]pyrrolidine-2-carboxamide] | 8.64
C[C@H]1[C@H](F)C[C@@H](C(=O)NCc2cc(-c3cnc(C(F)(F)F)nc3)ncc2C2CC2)N1S(=O)(=O)c1ccc(F)cc1 [Example 125, (2S,4R,5S)-N-[[5-cyclopropyl-2-[2-(trifluoromethyl)pyrimidin-5-yl]-4-pyridyl]methyl]-4-fluoro-1-(4-fluorophenyl)sulfonyl-5-methyl-pyrrolidine-2-carboxamide] | 8.31
COc1nc(CNC(=O)[C@@H]2C[C@@H](F)[C@H](C)N2S(=O)(=O)c2ccc(F)cc2)cc(-c2cnc(C(F)(F)F)nc2)n1 [Example 126, (2S,4R,5S)-4-fluoro-1-(4-fluorophenyl)sulfonyl-N-[[2-methoxy-6-[2-(trifluoromethyl)pyrimidin-5-yl]pyrimidin-4-yl]methyl]-5-methyl-pyrrolidine-2-carboxamide] | 7.89
C[C@H]1[C@H](F)C[C@@H](C(=O)NCc2cc([C@H]3C[C@@H](OC(F)(F)F)C3)ncc2F)N1S(=O)(=O)c1ccc(F)cc1 [Example 127, (2S,4R,5S)-4-fluoro-1-(4-fluorophenyl)sulfonyl-N-[[5-fluoro-2-[3-(trifluoromethoxy)cyclobutyl]-4-pyridyl]methyl]-5-methyl-pyrrolidine-2-carboxamide] | 8.37
C[C@H]1[C@H](F)C[C@@H](C(=O)NCc2cc(-c3cc(C(F)(F)F)nn3C)ncc2F)N1S(=O)(=O)c1ccc(F)cc1 [Example 128, (2S,4R,5S)-4-fluoro-N-[[5-fluoro-2-[2-methyl-5-(trifluoromethyl)pyrazol-3-yl]-4-pyridyl]methyl]-1-(4-fluorophenyl)sulfonyl-5-methyl-pyrrolidine-2-carboxamide] | 7.74
C[C@H]1[C@H](F)C[C@@H](C(=O)NCc2cc(-c3cnc(C(F)(F)F)nc3)cc(C3CC3)n2)N1S(=O)(=O)c1ccc(F)cc1 [Example 130, (2S,4R,5S)-N-[[6-cyclopropyl-4-[2-(trifluoromethyl)pyrimidin-5-yl]-2-pyridyl]methyl]-4-fluoro-1-(4-fluorophenyl)sulfonyl-5-methyl-pyrrolidine-2-carboxamide] | 8.42
C[C@H]1[C@H](F)C[C@@H](C(=O)NCc2cc(-c3cnc(C(F)(F)F)nc3)c(F)c(C3CC3)n2)N1S(=O)(=O)c1ccc(F)cc1 [Example 131, (2S,4R,5S)-N-[[6-cyclopropyl-5-fluoro-4-[2-(trifluoromethyl)pyrimidin-5-yl]-2-pyridyl]methyl]-4-fluoro-1-(4-fluorophenyl)sulfonyl-5-methyl-pyrrolidine-2-carboxamide] | 8.39
C[C@H]1[C@H](F)C[C@@H](C(=O)NCc2cc(OC[C@@H]3C[C@H]3C(F)(F)F)nc(C3CC3)n2)N1S(=O)(=O)c1ccc(F)cc1 [Example 132, (2S,4R,5S)-N-[[2-cyclopropyl-6-[[(1R,2R)-2-(trifluoromethyl)cyclopropyl]methoxy]pyrimidin-4-yl]methyl]-4-fluoro-1-(4-fluorophenyl)sulfonyl-5-methyl-pyrrolidine-2-carboxamide] | 7.82
C[C@H]1[C@H](F)C[C@@H](C(=O)NCc2cc(-c3cnc(C(F)(F)F)nc3)c(C(F)F)cn2)N1S(=O)(=O)c1ccc(F)cc1 [Example 133, (2S,4R,5S)-N-[[5-(difluoromethyl)-4-[2-(trifluoromethyl)pyrimidin-5-yl]-2-pyridyl]methyl]-4-fluoro-1-(4-fluorophenyl)sulfonyl-5-methyl-pyrrolidine-2-carboxamide] | 7.52
C[C@H]1[C@H](F)C[C@@H](C(=O)NCc2cc(-c3cnc(C(F)(F)F)c(C#N)c3)ncc2F)N1S(=O)(=O)c1ccc(F)cc1 [Example 134, (2S,4R,5S)-N-[[2-[5-cyano-6-(trifluoromethyl)-3-pyridyl]-5-fluoro-4-pyridyl]methyl]-4-fluoro-1-(4-fluorophenyl)sulfonyl-5-methyl-pyrrolidine-2-carboxamide] | 7.49
C[C@H]1[C@H](F)C[C@@H](C(=O)NCc2cc(-c3cnc(C(F)(F)F)nc3)ncc2CC(F)(F)F)N1S(=O)(=O)c1ccc(F)cc1 [Example 136, (2S,4R,5S)-4-fluoro-1-(4-fluorophenyl)sulfonyl-5-methyl-N-[[5-(2,2,2-trifluoroethyl)-2-[2-(trifluoromethyl)pyrimidin-5-yl]-4-pyridyl]methyl]pyrrolidine-2-carboxamide] | 8.09
C[C@H]1[C@H](F)C[C@@H](C(=O)NCc2cc(-c3cnc(C(F)(F)F)nc3)nc(C3CC3)c2C(F)(F)F)N1S(=O)(=O)c1ccc(F)cc1 [Example 137, (2S,4R,5S)-N-[[2-cyclopropyl-3-(trifluoromethyl)-6-[2-(trifluoromethyl)pyrimidin-5-yl]-4-pyridyl]methyl]-4-fluoro-1-(4-fluorophenyl)sulfonyl-5-methyl-pyrrolidine-2-carboxamide] | 9.15
C[C@H]1[C@H](F)C[C@@H](C(=O)NCc2cc(-c3ccc(C(F)(F)F)cc3)ncc2OC(F)(F)F)N1S(=O)(=O)c1ccc(F)cc1 [Example 139, (2S,4R,5S)-4-fluoro-1-(4-fluorophenyl)sulfonyl-5-methyl-N-[[5-(trifluoromethoxy)-2-[4-(trifluoromethyl)phenyl]-4-pyridyl]methyl]pyrrolidine-2-carboxamide] | 8.56

More lines, in order of rising pIC50, values ahead:

pIC50 | Compound
7.71 | C[C@H]1[C@H](F)C[C@@H](C(=O)NCc2nc(-c3cnc(C(F)(F)F)nc3)ncc2C(F)(F)F)N1S(=O)(=O)c1ccc(F)cc1 [Example 135, (2S,4R,5S)-4-fluoro-1-(4-fluorophenyl)sulfonyl-5-methyl-N-[[5-(trifluoromethyl)-2-[2-(trifluoromethyl)pyrimidin-5-yl]pyrimidin-4-yl]methyl]pyrrolidine-2-carboxamide]
7.93 | C[C@H]1[C@H](F)C[C@@H](C(=O)NCc2cc(-c3cnc(C(F)(F)F)nc3)ncc2CF)N1S(=O)(=O)c1ccc(F)cc1 [Example 138]
7.97 | C[C@H]1[C@H](F)C[C@@H](C(=O)NCc2cc(C(F)(F)F)nc(C3CC3)c2F)N1S(=O)(=O)c1ccc(F)cc1 [Example 123, (2S,4R,5S)-N-[[2-cyclopropyl-3-fluoro-6-(trifluoromethyl)-4-pyridyl]methyl]-4-fluoro-1-(4-fluorophenyl)sulfonyl-5-methyl-pyrrolidine-2-carboxamide]
8.38 | C[C@H]1[C@H](F)C[C@@H](C(=O)NCc2cc(-c3cnc(C(F)(F)F)s3)ncc2C#N)N1S(=O)(=O)c1ccc(F)cc1 [Example 129, (2S,4R,5S)—N-((5-cyano-2-(2-(trifluoromethyl)thiazol-5-yl)pyridin-4-yl)methyl)-4-fluoro-1-((4-fluorophenyl)sulfonyl)-5-methylpyrrolidine-2-carboxamide]
8.82 | C[C@H]1[C@H](F)C[C@@H](C(=O)NCc2cc(C(F)(F)F)nc(C3CC3)n2)N1S(=O)(=O)c1cc2cc(F)ccc2o1 [Example 120, (2S,4R,5S)-N-[[2-cyclopropyl-6-(trifluoromethyl)pyrimidin-4-yl]methyl]-4-fluoro-1-(5-fluorobenzofuran-2-yl)sulfonyl-5-methyl-pyrrolidine-2-carboxamide]
8.96 | COc1nn(-c2cnc(C(F)(F)F)nc2)cc1CNC(=O)[C@@H]1C[C@@H](F)[C@H](C)N1S(=O)(=O)c1cc2cc(F)ccc2o1 [Example 117, (2S,4R,5S)-4-fluoro-1-(5-fluorobenzofuran-2-yl)sulfonyl-N-[[3-methoxy-1-[2-(trifluoromethyl)pyrimidin-5-yl]pyrazol-4-yl]methyl]-5-methyl-pyrrolidine-carboxamide]
9.08 | C[C@H]1[C@H](F)C[C@@H](C(=O)NCc2cc(-c3cnc(C(F)(F)F)nc3)ncc2C(F)(F)F)N1S(=O)(=O)c1ccc(F)c(F)c1 [Example 119, (2S,4R,5S)-1-(3,4-difluorophenyl)sulfonyl-4-fluoro-5-methyl-N-[[5-(trifluoromethyl)-2-[2-(trifluoromethyl)pyrimidin-5-yl]-4-pyridyl]methyl]pyrrolidine-2-carboxamide]
